Patent publication US11760766B2, “Ionic liquids containing quaternary ammonium and phosphonium cations, and their use as environmentally friendly lubricant additives” (UT-Battelle, LLC, priority 2020, dated 2023)
Where two headings read alike, the source gives them in different places.

Key:
Ceriodaphnia dubia = settings: in vivo
[1] = Solubility of ILs in base oils, by centrifuging the oil-additive blends; settings: centrifuged 13,000 rpm 5 min

Row | Molecule | Survival rate of Daphnia (Ceriodaphnia dubia) | Total reproductive output (number of neonates) in surviving Daphnia (Ceriodaphnia dubia) | also measured
1 | CCCCCCN(CCCCCC)CCCCCC.CCCCOP(=O)(O)OCCCC [[N666H][DBP]] | 10% |  | 
2 | CCCCCCCCN(CCCCCCCC)CCCCCCCC.CCCCOP(=O)(O)OCCCC [[N888H][DBP]] | 0% | 0 | 
3 | CCCCOP(=O)([O-])OCCCC.CCCC[N+](C)(CCCC)CCCC [[N4441] [DBP]] | > 70% |  | 
4 | CCCCOP(=O)(O)OCCCC.CN1CCOCC1 [[NMM] [DBP]] | 70-90% |  | 
5 | CCCCOP(=O)(O)OCCCC.CN1CCOCC1 [[NMM][DBP]] | > 70% |  | 
6 | CCCCOP(=O)(O)OCCCC.CN1CCCCC1 [[NMPPR] [DBP]] | 70-90% |  | 
7 | CCCCOP(=O)(O)OCCCC.CN1CCCCC1 [[NMPPR][DBP]] | > 70% |  | 
8 | CCCC[P+](CC)(CCCC)CCCC [[P4442][DEP], Tributyl(ethyl)phosphonium diethyl phosphate] |  |  | IL's solubility in base oil ([1]; OSP-32): >5% wt. %; IL's solubility in base oil ([1]; PAG (50-HB-170)): >5% wt. %; Number of surviving Daphnia (Ceriodaphnia dubia; Ceriodaphnia dubia): 10; Survival rate of Daphnia (Ceriodaphnia dubia; Ceriodaphnia dubia): > 70%; Mortality / survival of Daphnia, in words (Ceriodaphnia dubia): did not cause any mortality
9 | Tetraoctylammonium octadecanoate [[N8888][C17H35COO]] |  | 0 | Mortality / survival of Daphnia, in words (Ceriodaphnia dubia): No Daphnia survived for three days
10 | Tetraoctylphosphonium bis(2-ethylhexyl) phosphate [[P8888][DEHP], reference compound] |  | 0 | Time of exposure after which all Daphnia were killed (Ceriodaphnia dubia): one
11 | Trioctylammonium di(2-ethylhexyl)phosphate [[N888H][DEHP], reference compound] |  | 0 | 
12 | tributyl(methyl)ammonium dibutyl phosphate [[N4441][DBP]] |  |  | Mortality / survival of Daphnia, in words (Ceriodaphnia dubia): did not cause any mortality
